Reference: the supplement of paper PMC4862054

How the values were obtained:
Conditions in all cases: incubation time: 72 h
[1] = tested on: BT-474; experiment: drug sensitivity score (DSS), CellTox Green (DSS (AUC-based score)); higher = stronger drug effect (viability inhibition or cytotoxicity); extreme values may be limits of the assay
Summary of the method: (§1)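 After 72 h of incubation in 384-well plates with compound at 5 concentrations (10-fold steps, 10,000-fold range set per compound), breast cancer cell lines seeded in 20 µl suspension were read first for CellTox Green fluorescence at 485/520 nm. CellTiter-Glo luminescence was measured next, after 10 min at room temperature. Normalisation on each plate used 0.1 % DMSO and a positive kill control, and the drug sensitivity score was computed from the area under the fitted dose-response curve.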

[2] = tested on: BT-549; experiment: as above
Summary of the method: as §1

[3] = tested on: CAL-120; experiment: as above
Summary of the method: as §1

[4] = tested on: CAL-148; experiment: as above
Summary of the method: as §1

[5] = tested on: CAL-51; experiment: as above
Summary of the method: as §1

[6] = tested on: CAL-85-1; experiment: as above
Summary of the method: as §1

[7] = tested on: DU-4475; experiment: as above
Summary of the method: as §1

[8] = tested on: HCC1143; experiment: as above
Summary of the method: as §1

[9] = tested on: HCC1599; experiment: as above
Summary of the method: as §1

[10] = tested on: HDQ-P1; experiment: as above
Summary of the method: as §1

[11] = tested on: Hs578T; experiment: as above
Summary of the method: as §1

[12] = tested on: MDA-MB-231; experiment: as above
Summary of the method: as §1

[13] = tested on: MDA-MB-436; experiment: as above
Summary of the method: as §1

[14] = tested on: MDA-MB-453; experiment: as above
Summary of the method: as §1

[15] = tested on: MDA-MB-468; experiment: as above
Summary of the method: as §1

[16] = tested on: BT-474; experiment: normalised viability (% of control), CellTiter-Blue; higher = more viable cells (about 100 = DMSO control)
Summary of the method: (§2)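 Seeded at 20 µl suspension per well onto compound-loaded 384-well plates, breast cancer cell lines were incubated 72 h. CellTiter-Blue fluorescence at 560/590 nm was then read, with each plate normalised to vehicle (100) and a positive kill control (0). Normalised viability is reported at a single listed concentration of the series.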

[17] = tested on: BT-549; experiment: as above
Summary of the method: as §2

[18] = tested on: CAL-148; experiment: as above
Summary of the method: as §2

[19] = tested on: CAL-51; experiment: as above
Summary of the method: as §2

[20] = tested on: CAL-85-1; experiment: as above
Summary of the method: as §2

[21] = tested on: DU-4475; experiment: as above
Summary of the method: as §2

[22] = tested on: HCC1937; experiment: as above
Summary of the method: as §2

[23] = tested on: HDQ-P1; experiment: as above
Summary of the method: as §2

[24] = tested on: Hs578T; experiment: as above
Summary of the method: as §2

[25] = tested on: MFM-223; experiment: as above
Summary of the method: as §2

Q: What does the source list for `C=CCc1cccc(/C=N/NC(=O)CN2CCN(Cc3ccccc3)CC2)c1O` [PAC-1]?
A: drug sensitivity score [1]: 1; drug sensitivity score [2]: 8.49; drug sensitivity score [3]: 0; drug sensitivity score [4]: 0; drug sensitivity score [5]: 4.72; drug sensitivity score [6]: 0; drug sensitivity score [7]: 0; drug sensitivity score [8]: 0; drug sensitivity score [9]: 0; drug sensitivity score [10]: 0; drug sensitivity score [11]: 0; drug sensitivity score [12]: 0; drug sensitivity score [13]: 0; drug sensitivity score [14]: 0; drug sensitivity score [15]: 0

Q: Which results are given for `O=C(O)C1(C(=O)O)CCC1.[NH2-].[NH2-].[Pt+2]` [Carboplatin]?
A: normalised viability ([16]; 10 nM): 127%; normalised viability ([16]; 1000 nM): 121%; normalised viability ([16]; 10000 nM): 113%; normalised viability ([17]; 10 nM): 83.4%; normalised viability ([17]; 1000 nM): 92%; normalised viability ([17]; 10000 nM): 87.7%; normalised viability ([18]; 3 nM): 90%; normalised viability ([18]; 30 nM): 96%; normalised viability ([18]; 100 nM): 95.4%; normalised viability ([19]; 3 nM): 104%; normalised viability ([19]; 30 nM): 99%; normalised viability ([19]; 100 nM): 96.2%; normalised viability ([20]; 3 nM): 98%; normalised viability ([20]; 30 nM): 82.2%; normalised viability ([20]; 100 nM): 99.6%; normalised viability ([21]; 3 nM): 99%; normalised viability ([21]; 30 nM): 74.5%; normalised viability ([21]; 100 nM): 89.4%; normalised viability ([22]; 10 nM): 82.3%; normalised viability ([22]; 1000 nM): 103%; normalised viability ([22]; 10000 nM): 54.2%; normalised viability ([23]; 3 nM): 108%; normalised viability ([23]; 30 nM): 107%; normalised viability ([23]; 100 nM): 103%; normalised viability ([24]; 10 nM): 105%; normalised viability ([24]; 1000 nM): 94.1%; normalised viability ([24]; 10000 nM): 109%; normalised viability ([25]; 10 nM): 86%; normalised viability ([25]; 1000 nM): 98.4%; normalised viability ([25]; 10000 nM): 48.7%; drug sensitivity score [1]: 0; drug sensitivity score [2]: 1.73; drug sensitivity score [3]: 0; drug sensitivity score [4]: 0; drug sensitivity score [5]: 0; drug sensitivity score [6]: 0; drug sensitivity score [7]: 0; drug sensitivity score [8]: 0; drug sensitivity score [9]: 0; drug sensitivity score [10]: 0; drug sensitivity score [11]: 0; drug sensitivity score [12]: 0; drug sensitivity score [13]: 0; drug sensitivity score [14]: 0; drug sensitivity score [15]: 0

Q: How did the normalised viability ([16]; 1 nM) turn out when `CC[C@@H]1C(=O)N(C)c2cnc(Nc3ccc(C(=O)NC4CCN(C)CC4)cc3OC)nc2N1C1CCCC1` [BI 2536] was run?
A: 116%

Q: And the normalised viability ([16]; 100 nM)?
A: 89.1%

Q: What about the normalised viability ([16]; 1000 nM) of the same compound?
A: 100%

Q: What about the normalised viability ([17]; 1 nM) of the same compound?
A: 85.2%

Q: And the normalised viability ([17]; 100 nM)?
A: 38.6%

Q: What about the normalised viability ([17]; 1000 nM) of the same compound?
A: 44.2%

Q: What about the normalised viability ([18]; 0.3 nM) of the same compound?
A: 96.9%

Q: And the normalised viability ([18]; 3 nM)?
A: 92.9%

Q: What about the normalised viability ([18]; 10 nM) of the same compound?
A: 26.2%

Q: And the normalised viability ([19]; 0.3 nM)?
A: 99.2%

Q: And the normalised viability ([19]; 3 nM)?
A: 90.5%

Q: What about the normalised viability ([19]; 10 nM) of the same compound?
A: 63.9%

Q: What about the normalised viability ([20]; 0.3 nM) of the same compound?
A: 101%

Q: What about the normalised viability ([20]; 3 nM) of the same compound?
A: 79.7%

Q: And the normalised viability ([20]; 10 nM)?
A: 40.5%

Q: And the normalised viability ([21]; 0.3 nM)?
A: 105%

Q: And the normalised viability ([21]; 3 nM)?
A: 86.5%

Q: What about the normalised viability ([21]; 10 nM) of the same compound?
A: 50.6%

Q: And the normalised viability ([22]; 1 nM)?
A: 107%

Q: What about the normalised viability ([22]; 100 nM) of the same compound?
A: 24%

Q: And the normalised viability ([22]; 1000 nM)?
A: 28.3%

Q: What about the normalised viability ([23]; 0.3 nM) of the same compound?
A: 126%

Q: And the normalised viability ([23]; 3 nM)?
A: 77%

Q: And the normalised viability ([23]; 10 nM)?
A: 74.2%

Q: And the normalised viability ([24]; 1 nM)?
A: 114%

Q: And the normalised viability ([24]; 100 nM)?
A: 29.9%

Q: What about the normalised viability ([24]; 1000 nM) of the same compound?
A: 65.3%

Q: And the normalised viability ([25]; 1 nM)?
A: 87.2%

Q: And the normalised viability ([25]; 100 nM)?
A: 48.6%

Q: What about the normalised viability ([25]; 1000 nM) of the same compound?
A: 48.5%

Q: And the drug sensitivity score [1]?
A: 0

Q: What about the drug sensitivity score [2] of the same compound?
A: 0

Q: What about the drug sensitivity score [3] of the same compound?
A: 1.97

Q: And the drug sensitivity score [4]?
A: 0

Q: What about the drug sensitivity score [5] of the same compound?
A: 16.7

Q: What about the drug sensitivity score [6] of the same compound?
A: 10.3

Q: And the drug sensitivity score [7]?
A: 0

Q: And the drug sensitivity score [8]?
A: 0

Q: And the drug sensitivity score [9]?
A: 0

Q: And the drug sensitivity score [10]?
A: 0

Q: And the drug sensitivity score [11]?
A: 4.87

Q: And the drug sensitivity score [12]?
A: 9.92

Q: And the drug sensitivity score [13]?
A: 0

Q: And the drug sensitivity score [14]?
A: 0

Q: And the drug sensitivity score [15]?
A: 0

Q: For `O=C(O)CCCCC(CCSCc1ccccc1)SCc1ccccc1` (stereo not given) [CPI-613], which drug sensitivity score [1] is on record?
A: 0

Q: And the drug sensitivity score [2]?
A: 0

Q: What about the drug sensitivity score [3] of the same compound?
A: 0

Q: What about the drug sensitivity score [4] of the same compound?
A: 0

Q: And the drug sensitivity score [5]?
A: 0

Q: And the drug sensitivity score [6]?
A: 0.118

Q: What about the drug sensitivity score [7] of the same compound?
A: 0

Q: And the drug sensitivity score [8]?
A: 0

Q: And the drug sensitivity score [9]?
A: 0

Q: What about the drug sensitivity score [10] of the same compound?
A: 0

Q: And the drug sensitivity score [11]?
A: 0

Q: And the drug sensitivity score [12]?
A: 0

Q: And the drug sensitivity score [13]?
A: 0

Q: What about the drug sensitivity score [14] of the same compound?
A: 0

Q: What about the drug sensitivity score [15] of the same compound?
A: 0

Q: `CC(=O)Nc1cccc(-n2c(=O)n(C3CC3)c(=O)c3c(Nc4ccc(I)cc4F)n(C)c(=O)c(C)c32)c1` [Trametinib] was tested. Which drug sensitivity score [1] did it give?
A: 0

Q: And the drug sensitivity score [2]?
A: 0

Q: What about the drug sensitivity score [3] of the same compound?
A: 1.74

Q: What about the drug sensitivity score [4] of the same compound?
A: 0

Q: What about the drug sensitivity score [5] of the same compound?
A: 0

Q: What about the drug sensitivity score [6] of the same compound?
A: 7.34

Q: What about the drug sensitivity score [7] of the same compound?
A: 7.36

Q: What about the drug sensitivity score [8] of the same compound?
A: 0

Q: What about the drug sensitivity score [9] of the same compound?
A: 0

Q: And the drug sensitivity score [10]?
A: 0

Q: And the drug sensitivity score [11]?
A: 0

Q: What about the drug sensitivity score [12] of the same compound?
A: 12

Q: And the drug sensitivity score [13]?
A: 0

Q: What about the drug sensitivity score [14] of the same compound?
A: 0

Q: What about the drug sensitivity score [15] of the same compound?
A: 0

Q: Which results are given for `CCCCC(=O)OCC(=O)[C@]1(O)Cc2c(O)c3c(c(O)c2[C@@H](O[C@H]2C[C@H](NC(=O)C(F)(F)F)[C@H](O)[C@H](C)O2)C1)C(=O)c1c(OC)cccc1C3=O` [Valrubicin]?
A: normalised viability ([16]; 10 nM): 114%; normalised viability ([16]; 1000 nM): 74.9%; normalised viability ([16]; 10000 nM): 55.1%; normalised viability ([17]; 10 nM): 82.4%; normalised viability ([17]; 1000 nM): 65.1%; normalised viability ([17]; 10000 nM): 47.5%; normalised viability ([18]; 3 nM): 90.9%; normalised viability ([18]; 30 nM): 72.9%; normalised viability ([18]; 100 nM): 60.1%; normalised viability ([19]; 3 nM): 93.1%; normalised viability ([19]; 30 nM): 80%; normalised viability ([19]; 100 nM): 55.3%; normalised viability ([20]; 3 nM): 80.8%; normalised viability ([20]; 30 nM): 81.8%; normalised viability ([20]; 100 nM): 81.5%; normalised viability ([21]; 3 nM): 90.1%; normalised viability ([21]; 30 nM): 55.4%; normalised viability ([21]; 100 nM): 49.8%; normalised viability ([22]; 10 nM): 96.5%; normalised viability ([22]; 1000 nM): 30.7%; normalised viability ([22]; 10000 nM): 19.7%; normalised viability ([23]; 3 nM): 96.2%; normalised viability ([23]; 30 nM): 97.4%; normalised viability ([23]; 100 nM): 84.7%; normalised viability ([24]; 10 nM): 98.8%; normalised viability ([24]; 1000 nM): 55.5%; normalised viability ([24]; 10000 nM): 22%; normalised viability ([25]; 10 nM): 92.1%; normalised viability ([25]; 1000 nM): 72.6%; normalised viability ([25]; 10000 nM): 24.2%; drug sensitivity score [1]: 0; drug sensitivity score [2]: 0; drug sensitivity score [3]: 0.113; drug sensitivity score [4]: 10.8; drug sensitivity score [5]: 8.29; drug sensitivity score [6]: 0; drug sensitivity score [7]: 0; drug sensitivity score [8]: 0; drug sensitivity score [9]: 0; drug sensitivity score [10]: 0; drug sensitivity score [11]: 0.113; drug sensitivity score [12]: 0; drug sensitivity score [13]: 3.14; drug sensitivity score [14]: 0; drug sensitivity score [15]: 5.83
